{
  "source": "patent US11613552B2",
  "about": "“Pharmaceutical agents, compositions, and methods relating thereto” (Alltech, Inc., priority 2017, dated 2023)",
  "key": {"HepG2 cells [1]": {"system": "HepG2 cells", "assay": "Glucose production assay in HepG2 cells", "assay_type": "cell-based, human", "description": "(§1) Equal numbers of Human HepG2 or rat H4IIE cells (1-1.5×10^5 cells/well) were seeded on 96 well plates in 10% FBS-containing media for 24 hr. Cells were then washed twice with PBS, and treated with various concentrations of compounds, metformin or insulin in 100 μl of glucose production media (glucose-free, phenol red-free DMEM media supplemented with 20 mM sodium lactate, 2 mM sodium pyruvate and 5 mM HEPES) at 37° C. for 24 hr (H4IIE cells only) or 48 hr (HepG2 cell only). Cells were also incubated with 0.24% DMSO (the maximal volume of DMSO solvent used in the experiments).\n(§2) After the above treatments, 50 μl of culture media were collected, and subjected to glucose analysis using Molecular Probes Amplex Red glucose assay kit (Cat #A22189) according to the manufacturer's protocol. Cell numbers or viability in the culture plate after the above compound treatments were determined using Promega's CellTiter96® AQueous One Solution Cell Proliferation Assay kits, according to the manufacturer's protocol and instructions. In brief, after removing 50 μl of culture media for glucose assay, cells were incubated with AQueous One solution (25 μl stock solution and 50 μl prewarmed PBS/per well) at 37° C. for 1 hour, and the absorbance of OD490 nm in each sample was determined by the Bio-Tek microplate reader. Cell viability in culture wells were determined by the subtraction of OD490 nm in cultured cells with the OD490 nm in plain culture media (without seeding of cells). Glucose production in the culture cells were obtained by normalizing the glucose concentration in culture media by cell viability in each well. At least 3 samples per each treatment were examined for the above analysis. Data are presented as Mean±SEM of those samples. Experiments were repeated at least twice.\n(§3) The half maximal inhibitory concentration (IC50 values) of Compound #43 or metformin for the inhibition of glucose production were determined using the ED50 Plus v1.0 online software."}, "H4IIE cells [2]": {"system": "H4IIE cells", "assay": "Cell viability (CellTiter96 AQueous One) in H4IIE cells", "assay_type": "cell-based, rat", "details": "tested doses", "description": "as §2"}, "HepG2 cells [3]": {"system": "HepG2 cells", "assay": "Cell viability (CellTiter96 AQueous One) in HepG2 cells", "assay_type": "cell-based, human", "details": "higher doses 0.5-4 mM", "description": "as §2"}, "H4IIE cells [4]": {"system": "H4IIE cells", "assay": "Glucose production assay in H4IIE cells", "assay_type": "cell-based, rat", "description": "as §1, §2, §3"}, "Lepr^db/db mice [5]": {"system": "Lepr^db/db mice", "assay": "Glucose tolerance test in Lepr^db/db mice", "assay_type": "in vivo, mouse", "description": "(§4) Male Lepr^db/db mice at 38 days of age were intraperitoneally (ip) injected daily with physiological saline ([…]) containing 0.2% DMSO, Compound #C, Compound #50, Compound #68, and/or Compound #43 (25 μg selenium or sulfur equivalents of each compound per kilogram body weight, diluted in sterile physiological saline) for periods ranging from 43-90 days. Body weights of the above treated mice were recorded daily using a balance and any visible abnormal animal gross morphology and walking behavior were monitored daily. After the treatments, animals were fasted overnight and then subjected to blood glucose or HbA1c assays, glucose tolerance tests or tissue collections.\n(§5) For comparative studies of any potential anti-diabetic effects of Compounds #43, #69 and #70, male Lepr^db/db mice at 41 days of age were intraperitoneally (ip) injected daily with physiological saline ([…]) containing 0.2% DMSO, Compound #43, Compound #69, or Compound #70 (25 μg selenium of each compound per kilogram body weight, diluted in sterile physiological saline). After the treatments for 43 days, animals were fasted overnight and then subjected to blood glucose and glucose tolerance tests. After daily treatments of these compounds for 90 days, sera from these animals were collected and then subjected to blood HbA1c assays.\nGlucose tolerance tests were performed as described previously (Li et al, Int J Biol Sci 2008; 4:29-36). Briefly, overnight-fasted Lepr^db/db mice after saline or compound treatments were injected intraperitoneally with 2 grams/kg body weight of 20% D-glucose. Blood glucose levels at time 0 (immediately before the injection of glucose), 0.25, 0.5, 1 and 2 hours after injection of glucose were determined using a glucometer with a maximum glucose measurement capacity of 600 mg/dL. Because of this, blood glucose levels over 600 mg/dL were counted as 600 mg/dL in the data analysis."}, "Lepr^db/db mice [6]": {"system": "Lepr^db/db mice", "assay": "Chronic treatment: fasting blood glucose and HbA1c in Lepr^db/db mice", "assay_type": "in vivo, mouse", "details": "for effect on HbA1c levels: 25 μg selenium/kg ip daily for 90 days from 41 days of age (FIG. 5)", "description": "as §4, §5\nAfter treatment with physiological saline or compounds or after the injection of a bolus of glucose, a small drop of blood from each mouse was collected by snipping the mouse tail tip. Blood glucose levels were determined using a Glucometer with a maximum capability for glucose measurement of 600 mg/dL.\nAfter saline or compound treatments, a small drop of blood from the mouse tail was collected in an EDTA-coated eppendorf tube (to prevent blood coagulation) (Fisher Scientific), and then subjected to a HbA1c assay using the Crystal Chem's or Kamiya's mouse glycated hemoglobin A1c ELISA kit, according to the manufacturer's protocol. Also after the final treatments, mouse serum was collected and subjected to HbA1c assay using the Kamiya Biomeidcal Company's mouse HbA1c kit, according to the manufacturer's protocol."}, "[7]": {"assay": "Body weight, gross morphology and walking behavior of treated Lepr^db/db mice", "assay_type": "in vivo", "description": "Body weights of the above treated mice were recorded daily using a balance and any visible abnormal animal gross morphology and walking behavior were monitored daily. After the treatments, animals were fasted overnight and then subjected to blood glucose or HbA1c assays, glucose tolerance tests or tissue collections.\nAfter the treatments for 43 days, animals were fasted overnight and then subjected to blood glucose and glucose tolerance tests. After daily treatments of these compounds for 90 days, sera from these animals were collected and then subjected to blood HbA1c assays."}, "[8]": {"molecular_target": "T1, native insulin receptor (Insr) (Rattus norvegicus, UniProt P15127)", "T1 construct": "native insulin receptor proteins, containing both alpha and beta subunits; purchased Sigma I9266; host or cells: purified from rat liver tissue", "T1 sequence (P15127 764-1383 limits assumed)": "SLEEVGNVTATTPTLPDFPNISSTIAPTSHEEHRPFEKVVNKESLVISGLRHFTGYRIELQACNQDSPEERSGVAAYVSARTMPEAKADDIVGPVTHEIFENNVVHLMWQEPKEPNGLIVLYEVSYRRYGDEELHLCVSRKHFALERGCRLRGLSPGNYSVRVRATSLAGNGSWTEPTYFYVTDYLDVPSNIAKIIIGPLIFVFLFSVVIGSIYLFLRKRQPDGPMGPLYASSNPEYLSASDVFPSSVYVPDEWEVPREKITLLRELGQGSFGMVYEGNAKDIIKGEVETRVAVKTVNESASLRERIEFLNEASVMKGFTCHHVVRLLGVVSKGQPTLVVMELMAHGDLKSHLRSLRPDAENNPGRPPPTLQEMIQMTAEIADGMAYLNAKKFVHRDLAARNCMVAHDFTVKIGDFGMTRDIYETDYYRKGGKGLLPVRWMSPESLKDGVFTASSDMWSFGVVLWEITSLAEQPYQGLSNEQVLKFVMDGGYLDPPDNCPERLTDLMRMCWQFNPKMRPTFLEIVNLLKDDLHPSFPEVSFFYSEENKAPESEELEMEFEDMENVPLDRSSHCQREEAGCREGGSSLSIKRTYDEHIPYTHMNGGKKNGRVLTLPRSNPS", "T1 sequence (P15127 27-759 partner limits assumed)": "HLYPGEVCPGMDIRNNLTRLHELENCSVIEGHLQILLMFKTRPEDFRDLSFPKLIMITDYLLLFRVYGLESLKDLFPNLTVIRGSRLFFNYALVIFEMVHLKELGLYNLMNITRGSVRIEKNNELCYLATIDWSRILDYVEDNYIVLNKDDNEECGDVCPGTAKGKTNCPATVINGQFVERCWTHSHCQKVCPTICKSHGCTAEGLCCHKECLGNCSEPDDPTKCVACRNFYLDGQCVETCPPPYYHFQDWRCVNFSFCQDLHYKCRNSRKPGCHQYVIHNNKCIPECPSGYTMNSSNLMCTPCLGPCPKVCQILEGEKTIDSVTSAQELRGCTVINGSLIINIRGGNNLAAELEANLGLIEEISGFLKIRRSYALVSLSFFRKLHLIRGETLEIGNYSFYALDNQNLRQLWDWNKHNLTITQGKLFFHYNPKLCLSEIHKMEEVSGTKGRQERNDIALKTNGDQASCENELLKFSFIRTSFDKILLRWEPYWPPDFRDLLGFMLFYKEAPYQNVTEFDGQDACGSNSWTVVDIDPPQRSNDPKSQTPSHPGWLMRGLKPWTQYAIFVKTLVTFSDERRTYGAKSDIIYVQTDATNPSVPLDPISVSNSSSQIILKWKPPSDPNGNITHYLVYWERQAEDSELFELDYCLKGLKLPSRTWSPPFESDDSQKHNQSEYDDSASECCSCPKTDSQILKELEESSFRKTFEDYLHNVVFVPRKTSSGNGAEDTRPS", "assay": "In vitro cell-free phosphorylation of native insulin receptor", "assay_type": "biochemical", "details": "3.8 μM, cell-free (FIG. 27)", "description": "In vitro phosphorylation of Insr was performed according to Sigma's protocol with the following modifications. In brief, 10 μl of native insulin receptor solution containing 0.8 μl of original native INSR stock solution (Sigma, Catalog #I9266; diluted in enzyme dilution buffer containing 50 mM HEPES, pH 7.6, 150 mM NaCl and 0.1% Triton X-100) were incubated with equal volume of solutions containing insulin (Sigma), DMSO (Compound #43 solvent), Compound #43 or Compound #68 (diluted in 50 mM HEPES, pH 7.6 and 100 μg/ml bovine serum albumin) on ice for 30 min. Then 20 μl of 2× kinase buffer containing 0.2 mM ATP, 50 mM HEPES, pH 7.6, 50 mM MgCl2 and 4 mM MnCl2 were added to the above reactions, mixed and incubated on ice for 45 minutes.\nFive microliters of the above reactions were immediately subjected to Western blot analysis using specific antibodies against phosphorylated tyrosine residues at 1146, 1150 and 1151 of Insrβ proteins (Cell Signaling Inc.). Protein band density was determined using the NIH Image J software."}, "[9]": {"details": "tested doses, serum-free glucose production media, 48 hr (FIG. 1)"}, "[10]": {"details": "25 μg selenium/kg ip daily for 43 days from 41 days of age (FIG. 5)"}, "[11]": {"details": "25 μg selenium/kg ip daily, 90 days, from 41 days of age"}},
  "data": [
    {"compound": "Nc1ncnc2c1ncn2[C@@H]1O[C@H](CO)[C@@H](O)[C@H]1O", "note": "[Compound #57, Adenosine, reference compound]", "values": [
      {"measurement": "effect on glucose production in HepG2 cells", "setting": "HepG2 cells [1]; [9]", "value": "did not inhibit glucose production"}
    ]},
    {"compound": "C[S+](CC[C@H](N)C(=O)O)C[C@H]1O[C@@H](n2cnc3c(N)ncnc32)C(O)C1O.[I-]", "note": "(stereo partly drawn) [Compound #64, S-(5′-Adenosyl)-L-methionine iodide (SAM), reference compound]", "values": [
      {"measurement": "effect on glucose production in HepG2 cells", "setting": "HepG2 cells [1]; [9]", "value": "minimal effects in lowering glucose production"}
    ]},
    {"compound": "CN(C)C(=N)N=C(N)N", "note": "[metformin, reference compound]", "values": [
      {"measurement": "toxic effect on cell viability", "setting": "H4IIE cells [2]", "value": "No toxic effect"},
      {"measurement": "cell toxicity", "setting": "HepG2 cells [3]", "value": "showed cell toxicity"},
      {"measurement": "inhibitory activity on glucose production in H4IIE cells", "setting": "H4IIE cells [4]; 36.25 μM", "value": "little or no inhibitory activity"},
      {"measurement": "IC50", "setting": "H4IIE cells [4]; Rattus norvegicus, H4IIE, serum-free, 24 hr, read-out: IC50 (inhibition of glucose production)", "value": 275, "unit": "µM"},
      {"measurement": "effect on glucose production in H4IIE cells", "setting": "H4IIE cells [4]; serum-free, 24 hr (FIG. 2)", "value": "dose-dependent decrease in glucose production"},
      {"measurement": "effect on glucose production in HepG2 cells", "setting": "HepG2 cells [1]; 500 μM", "value": "did not inhibit glucose production"}
    ]},
    {"compound": "Nc1ncnc2[nH]cnc12", "note": "[Compound #62, Adenine, reference compound]", "values": [
      {"measurement": "effect on glucose production in HepG2 cells", "setting": "HepG2 cells [1]; [9]", "value": "did not inhibit glucose production"}
    ]},
    {"compound": "Adenosine, 5′-Se-methyl-5′-selino-, 2′,3′-dipropionate [Compound #69]", "values": [
      {"measurement": "blood glucose level at 2 hr after glucose injection", "setting": "Lepr^db/db mice [5]; FIG. 8C, 43 days treatment", "value": "slight but non-significant decrease in glucose levels"},
      {"measurement": "effect on glucose production in HepG2 cells", "setting": "HepG2 cells [1]; [9]", "value": "inhibited glucose production"},
      {"measurement": "effect on fasting blood glucose levels", "setting": "Lepr^db/db mice [6]; [10]", "value": "slight increase in fasting blood glucose levels"},
      {"measurement": "effect on HbA1c levels", "setting": "Lepr^db/db mice [6]", "value": "did not result in a significant decrease of HbA1c levels"},
      {"measurement": "overt toxic effects (morphology, walking behavior, body weight)", "setting": "[7]; [11]", "value": "no overt toxic effects"}
    ]},
    {"compound": "CCCC(=O)OC1C(OC(=O)CCC)[C@@H](C[Se]C)O[C@H]1n1cnc2c(N)ncnc21", "note": "(stereo partly drawn) [Compound #70, Adenosine, 5′-Se-methyl-5′-selino-, 2′,3′-dibutanoate]", "values": [
      {"measurement": "blood glucose level at 2 hr after glucose injection", "setting": "Lepr^db/db mice [5]; FIG. 8C, 43 days treatment", "value": "slight but non-significant decrease in blood glucose levels"},
      {"measurement": "effect on glucose production in HepG2 cells", "setting": "HepG2 cells [1]; [9]", "value": "inhibited glucose production"},
      {"measurement": "effect on fasting blood glucose levels", "setting": "Lepr^db/db mice [6]; [10]", "value": "decrease of fasting blood glucose levels in Lepr^db/db mice but less significant than Compound #43"},
      {"measurement": "decrease of HbA1c levels (initial assessments)", "setting": "Lepr^db/db mice [6]; 25 μg selenium/kg ip daily for 90 days (FIG. 5), later revised", "value": "about 50%"},
      {"measurement": "effect on HbA1c levels", "setting": "Lepr^db/db mice [6]", "value": "neither Compound #69 nor Compound #70 had any significant effect"},
      {"measurement": "overt toxic effects (morphology, walking behavior, body weight)", "setting": "[7]; [11]", "value": "no overt toxic effects"}
    ]},
    {"compound": "C[C@H]1O[C@@H](n2cnc3c(N)ncnc32)C[C@@H]1O", "note": "[Compound #59, 2′,5′-Dideoxyadenosine, reference compound]", "values": [
      {"measurement": "effect on glucose production in HepG2 cells", "setting": "HepG2 cells [1]; [9]", "value": "did not inhibit glucose production"}
    ]},
    {"compound": "Nc1ncnc2c1ncn2C1CCCO1", "note": "(stereo not drawn) [Compound #61, 9-(tetrahydrofuran-2-yl)-9h-purin-6-amine (SQ 22,536), reference compound]", "values": [
      {"measurement": "effect on glucose production in HepG2 cells", "setting": "HepG2 cells [1]; [9]", "value": "did not inhibit glucose production"}
    ]},
    {"compound": "Adenosine, F—Se-methyl-F-seleno-, 2′-morpholinocarbamate and Adenosine, 5′-Se-methyl-F-seleno-, 3′-morpholinocarbamate [Compound #53]", "values": [
      {"measurement": "effect on glucose production in HepG2 cells", "setting": "HepG2 cells [1]; [9]", "value": "inhibited glucose production"}
    ]},
    {"compound": "CSC[C@H]1O[C@@H](n2cnc3c(N)ncnc32)[C@H](OC(C)=O)[C@@H]1OC(C)=O", "note": "[Compound #68, Adenosine, 5′-S-methyl-5′-thio-, 2′,3′-diacetate]", "values": [
      {"measurement": "glucose tolerance (overall)", "setting": "Lepr^db/db mice [5]; 25 μg selenium or sulfur/kg ip daily 2 months (FIG. 8B)", "value": "little or no effects to improve glucose tolerance"},
      {"measurement": "blood glucose level at 2 hr after glucose injection", "setting": "Lepr^db/db mice [5]; FIG. 8B, 2 months treatment", "value": "no obvious decrease of blood glucose levels"},
      {"measurement": "effect on glucose production in HepG2 cells", "setting": "HepG2 cells [1]; [9]", "value": "minimal effects in lowering glucose production"},
      {"measurement": "activation of Insr", "setting": "[8]", "value": "less effective at the tested dose than Compound #43"},
      {"measurement": "effect on fasting blood glucose levels", "setting": "Lepr^db/db mice [6]; 25 μg selenium or sulfur/kg ip daily, 3 months (FIG. 4)", "value": "did not significantly lower blood glucose levels"},
      {"measurement": "effect on blood HbA1c levels", "setting": "Lepr^db/db mice [6]; 25 μg sulfur/kg ip daily, 3 months (FIG. 4)", "value": "did not affect blood HbA1c levels"},
      {"measurement": "overt toxic effects (morphology, walking behavior, body weight)", "setting": "[7]; 25 μg selenium or sulfur/kg ip daily, 3 months", "value": "no overt toxic effects"}
    ]}
  ]
}
